Assay results reported in patent US8716475B2, “2-aminopyrimidine modulators of the histamine H4 receptor” (Janssen Pharmaceutica NV, priority 2007, dated 2014).

Target: T1, human H4 receptor (Homo sapiens, UniProt Q9H3N8)
T1 construct: expressed in transfected cells
Experiment: Binding Assay on Recombinant Human Histamine H4 Receptor
Conditions: [3H] histamine competition binding, membranes of SK-N-MC cells transfected with human H4 receptor, average of results
Procedure: Binding Assay on Recombinant Human Histamine H4 Receptor.
Cell pellets from SK-N-MC cells stably or transiently transfected with human H4 receptor were used for the binding assays. Cell pellets were homogenized in 50 mM Tris/5 mM EDTA buffer and supernatants from an 800g spin were collected and recentrifuged at 30,000g for 30 min. Pellets were rehomogenized in 50 mM Tris/5 mM EDTA buffer. […] Compounds were tested in free base, hydrochloride salt, or trifluoroacetic acid form. Nonspecific binding was defined with 100 μM cold histamine. […] Membranes were harvested by rapid filtration using the 96 well Brandel system or a cell harvester using a Whatman GF/C filter or filter plates treated with 0.5% polyethylenimine (PEI), and washed 4 times with ice-cold 50 mM Tris/5 mM EDTA buffer. Filters were then dried, mixed with scintillant and radioactive counts were determined. […] Data marked with an asterisk (*) were obtained by the cell harvester method. Where activity is shown as greater than (>) a particular value, the value is the highest concentration tested.

T1 sequence (Q9H3N8 whole entry): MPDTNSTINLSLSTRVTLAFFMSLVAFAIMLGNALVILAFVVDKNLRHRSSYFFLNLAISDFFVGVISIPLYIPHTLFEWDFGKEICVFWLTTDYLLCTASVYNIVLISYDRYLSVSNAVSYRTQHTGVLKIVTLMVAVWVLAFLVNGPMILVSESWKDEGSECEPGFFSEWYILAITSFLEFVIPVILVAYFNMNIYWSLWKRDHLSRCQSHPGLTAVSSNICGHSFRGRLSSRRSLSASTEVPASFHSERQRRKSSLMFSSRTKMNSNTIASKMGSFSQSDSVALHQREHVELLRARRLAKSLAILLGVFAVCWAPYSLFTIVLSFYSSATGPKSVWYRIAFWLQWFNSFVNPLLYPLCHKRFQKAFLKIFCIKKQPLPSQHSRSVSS

SMILES	Ki (Table 1) [nM]	Ki (Table 2) [nM]
Cc1nc(N)nc(N2C[C@@H]3C[C@H]2CN3)c1C [Example 32, (S,S)-4-(2,5-Diaza-bicyclo[2.2.1]hept-2-yl)-5,6-dimethyl-pyrimidin-2-ylamine]	> 10000	
CCc1cc(N2CCNCC2)nc(N)n1 [Example 33, 4-Ethyl-6-piperazin-1-yl-pyrimidin-2-ylamine]	10	
CCc1cc(N2CCN(C)CC2)nc(N)n1 [Example 34, 4-Ethyl-6-(4-methyl-piperazin-1-yl)-pyrimidin-2-ylamine]	6	
CCc1cc(N2CC[C@@H](N)C2)nc(N)n1 [Example 35, (R)-4-(3-Amino-pyrrolidin-1-yl)-6-ethyl-pyrimidin-2-ylamine]	21	
CCc1cc(N2CC[C@@H](NC)C2)nc(N)n1 [Example 36, (R)-4-Ethyl-6-(3-methylamino-pyrrolidin-1-yl)-pyrimidin-2-ylamine]	21	
CCc1cc(N2C[C@H]3CCN[C@H]3C2)nc(N)n1 [Example 37, (R,R)-(4-Ethyl-6-hexahydro-pyrrolo[3,4-b]pyrrol-5-yl)-pyrimidin-2-ylamine]	27	
CCc1cc(N2C[C@H]3CNC[C@H]3C2)nc(N)n1 [Example 38, 4-Ethyl-6-(cis-hexahydro-pyrrolo[3,4-c]pyrrol-2-yl)-pyrimidin-2-ylamine]	559	
CCc1cc(N2C[C@H]3CCCN[C@H]3C2)nc(N)n1 [Example 39, (R,R)-(4-Ethyl-6-octahydro-pyrrolo[3,4-b]pyridin-6-yl)-pyrimidin-2-ylamine]	10	
CN1CCN(c2cc(C3CC3)nc(N)n2)CC1 [Example 40, 4-Cyclopropyl-6-(4-methyl-piperazin-1-yl)-pyrimidin-2-ylamine]	8	
CN[C@@H]1CCN(c2cc(C3CC3)nc(N)n2)C1 [Example 41, (R)-(4-Cyclopropyl-6-3-methylamino-pyrrolidin-1-yl)-pyrimidin-2-ylamine]	28	
Nc1nc(C2CC2)cc(N2CC3CCCNC3C2)n1 (stereo not drawn) [Example 42, 4-Cyclopropyl-6-(cis-octahydro-pyrrolo[3,4-b]pyridin-6-yl)-pyrimidin-2-ylamine]	18	
Nc1nc(C2CCC2)cc(N2CCNCC2)n1 [Example 43, 4-Cyclobutyl-6-piperazin-1-yl-pyrimidin-2-ylamine]	2	
CN1CCN(c2cc(C3CCC3)nc(N)n2)CC1 [Example 44, 4-Cyclobutyl-6-(4-methyl-piperazin-1-yl)-pyrimidin-2-ylamine]	1	
Nc1nc(C2CCC2)cc(N2CCC[C@@H](N)C2)n1 [Example 45, (R)-4-(3-Amino-piperidin-1-yl)-6-cyclobutyl-pyrimidin-2-ylamine]	103	
CN[C@@H]1CCN(c2cc(C3CCC3)nc(N)n2)C1 [Example 46, (R)-4-Cyclobutyl-6-(3-methylamino-pyrrolidin-1-yl)-pyrimidin-2-ylamine]	2	
Nc1nc(C2CCC2)cc(N2CC3CCNC3C2)n1 (stereo not drawn) [Example 47, 4-Cyclobutyl-6-(cis-hexahydro-pyrrolo[3,4-b]pyrrol-5-yl)-pyrimidin-2-ylamine]	11	
Nc1nc(C2CCC2)cc(N2C[C@H]3CNC[C@H]3C2)n1 [Example 48, 4-Cyclobutyl-6-(cis-hexahydro-pyrrolo[3,4-c]pyrrol-2-yl)-pyrimidin-2-ylamine]	328	
CN1C[C@@H]2CN(c3cc(C4CCC4)nc(N)n3)C[C@@H]2C1 [Example 49, 4-Cyclobutyl-6-(cis-5-methyl-hexahydro-pyrrolo[3,4-c]pyrrol-2-yl)-pyrimidin-2-ylamine]	50	
Nc1nc(C2CCC2)cc(N2CC3CCCNC3C2)n1 (stereo not drawn) [Example 50, 4-Cyclobutyl-6-(cis-octahydro-pyrrolo[3,4-b]pyridin-6-yl)-pyrimidin-2-ylamine]	3	
Nc1nc(C2CCC2)cc(N2C[C@H]3CCCN[C@H]3C2)n1 [Example 51, (R,R)-(4-Cyclobutyl-6-cis-octahydro-pyrrolo[3,4-b]pyridin-6-yl)-pyrimidin-2-ylamine]	3	
CN1CCN(c2cc(C3CCCCC3)nc(N)n2)CC1 [Example 52, 4-Cyclohexyl-6-(4-methyl-piperazin-1-yl)-pyrimidin-2-ylamine]	3	
CN[C@@H]1CCN(c2cc(C3CCCCC3)nc(N)n2)C1 [Example 53, (R)-(4-Cyclohexyl-6-3-methylamino-pyrrolidin-1-yl)-pyrimidin-2-ylamine]	3	
Nc1nc(C2CCCCC2)cc(N2CC3CCNC3C2)n1 (stereo not drawn) [Example 54, 4-Cyclohexyl-6-(cis-hexahydro-pyrrolo[3,4-b]pyrrol-5-yl)-pyrimidin-2-ylamine]	2	

SMILES	Ki (Table 1) [nM]	Ki (Table 2) [nM]
Nc1nc(C2CCCCC2)cc(N2C[C@H]3CCCN[C@H]3C2)n1 [Example 55, (R,R)-4-Cyclohexyl-6-(octahydro-pyrrolo[3,4-b]pyridin-6-yl)-pyrimidin-2-ylamine]	1	
Nc1nc(C2CCOC2)cc(N2CCNCC2)n1 (stereo not shown) [Example 56, 4-piperazin-1-yl-6-(tetrahydro-furan-3-yl)-pyrimidin-2-ylamine]	20	
CN1CCN(c2cc(C3CCOC3)nc(N)n2)CC1 (stereo not shown) [Example 57, 4-(4-Methyl-piperazin-1-yl)-6-(tetrahydro-furan-3-yl)-pyrimidin-2-ylamine]	27	
Nc1nc(C2CCOCC2)cc(N2CCNCC2)n1 [Example 58, 4-piperazin-1-yl-6-(tetrahydro-pyran-4-yl)-pyrimidin-2-ylamine]	41	
CN1CCN(c2cc(C3CCOCC3)nc(N)n2)CC1 [Example 59, 4-(4-Methyl-piperazin-1-yl)-6-(tetrahydro-pyran-4-yl)-pyrimidin-2-ylamine]	29	
CN[C@@H]1CCN(c2cc(C3CCOCC3)nc(N)n2)C1 [Example 60, (R)-4-(3-Methylamino-pyrrolidin-1-yl)-6-(tetrahydro-pyran-4-yl)-pyrimidin-2-ylamine]	31	
Nc1nc(C2CCOCC2)cc(N2C[C@H]3CCCN[C@H]3C2)n1 [Example 61, (R,R)-4-(Octahydro-pyrrolo[3,4-b]pyridin-6-yl)-6-(tetrahydro-pyran-4-yl)-pyrimidin-2-ylamine]	24	
Nc1nc(Cc2ccccc2)cc(N2CCNCC2)n1 [Example 62, 4-Benzyl-6-piperazin-1-yl-pyrimidin-2-ylamine]	30	
CN1CCN(c2cc(Cc3ccccc3)nc(N)n2)CC1 [Example 63, 4-Benzyl-6-(4-methyl-piperazin-1-yl)-pyrimidin-2-ylamine]	21	
Nc1nc(Cc2ccccc2)cc(N2C[C@H]3CCCN[C@H]3C2)n1 [Example 65, (R,R)-4-Benzyl-6-(octahydro-pyrrolo[3,4-b]pyridin-6-yl)-pyrimidin-2-ylamine]	47	
CN1CCN(c2nc(N)nc3c2CCCC3)CC1 [Example 66, 4-(4-Methyl-piperazin-1-yl)-5,6,7,8-tetrahydro-quinazolin-2-ylamine]	4	
Nc1nc2c(c(N3CC[C@@H](N)C3)n1)CCCC2 [Example 68, (R)-4-(3-Amino-pyrrolidin-1-yl)-5,6,7,8-tetrahydro-quinazolin-2-ylamine]	115	
CN[C@@H]1CCN(c2nc(N)nc3c2CCCC3)C1 [Example 69, (R)-4-(3-Methylamino-pyrrolidin-1-yl)-5,6,7,8-tetrahydro-quinazolin-2-ylamine]	43	
Nc1nc2c(c(N3C[C@H]4CCN[C@H]4C3)n1)CCCC2 [Example 70, (R,R)-4-(Hexahydro-pyrrolo[3,4-b]pyrrol-5-yl)-5,6,7,8-tetrahydro-quinazolin-2-ylamine]	404	
Nc1nc2c(c(N3CC4CCCNC4C3)n1)CCCC2 (stereo not drawn) [Example 71, 4-(cis-Octahydro-pyrrolo[3,4-b]pyridin-6-yl)-5,6,7,8-tetrahydro-quinazolin-2-ylamine]	5	
Nc1nc2c(c(N3C[C@H]4CCCN[C@H]4C3)n1)CCCC2 [Example 72, (R,R)-4-(Octahydro-pyrrolo[3,4-b]pyridin-6-yl)-5,6,7,8-tetrahydro-quinazolin-2-ylamine]	14	
Nc1nc2c(c(N3C[C@@H]4C[C@H]3CN4)n1)CCCC2 [Example 73, (S,S)-4-(2,5-Diaza-bicyclo[2.2.1]hept-2-yl)-5,6,7,8-tetrahydro-quinazolin-2-ylamine]	> 10000	
CN1CCN(c2nc(N)nc3c2CCC3)CC1 [Example 74, 4-(4-Methyl-piperazin-1-yl)-6,7-dihydro-5H-cyclopentapyrimidin-2-ylamine]	76	
CN[C@@H]1CCN(c2nc(N)nc3c2CCC3)C1 [Example 75, (R)-4-(3-Methylamino-pyrrolidin-1-yl)-6,7-dihydro-5H-cyclopentapyrimidin-2-ylamine]	159	
Nc1nc(C2CCCC2)cc(N2C[C@H]3CCCN[C@H]3C2)n1 [Example 81, (R,R)-4-Cyclopentyl-6-(octahydro-pyrrolo[3,4-b]pyridin-6-yl)-pyrimidin-2-ylamine]		2
CN1C[C@@H]2CN(c3cc(C4CCCC4)nc(N)n3)C[C@@H]2C1 [Example 82, 4-Cyclopentyl-6-(cis-5-methyl-hexahydro-pyrrolo[3,4-c]pyrrol-2-yl)-pyrimidin-2-ylamine]		25
Nc1nc(C2CCCC2)cc(N2C[C@H]3CCN[C@H]3C2)n1 [Example 83, (R,R)-4-Cyclopentyl-6-(hexahydro-pyrrolo[3,4-b]pyrrol-5-yl)-pyrimidin-2-ylamine]		3
Nc1nc(C2CCCC2)cc(N2CC(N)C2)n1 [Example 85, 4-(3-Amino-azetidin-1-yl)-6-cyclopentyl-pyrimidin-2-ylamine]		6
